This test concerns the target T1, human full-length MKNK1 (Homo sapiens, UniProt Q9BUB5, T385D).
T1 construct: GST (N); purchased Carna Biosciences 02-145; host or cells: insect cells (baculovirus expression system)
Put plainly: MKNK1 kinase high ATP assay (TR-FRET). The format is biochemical. To be noted: TR-FRET, 2 mM ATP (high ATP), 15 min preincubation with enzyme, 30 min reaction at 22° C.; read-out: MKNK1 IC50. As to the method:
MKNK1 Kinase High ATP Assay
MKNK1-inhibitory activity at high ATP of compounds of the present invention after their preincubation with MKNK1 was quantified employing the TR-FRET-based MKNK1 high ATP assay as described in the following paragraphs.
As substrate for the kinase reaction the biotinylated peptide biotin-Ahx-[…] (C-terminus in amide form) was used, which can be purchased e.g. from the company Biosyntan (Berlin-Buch, Germany).
For the assay 50 nL of a 100 fold concentrated solution of the test compound in DMSO was pipetted into a black low volume 384 well microtiter plate (Greiner Bio-One, Frickenhausen, Germany), 2 μL of a solution of MKNK1 in aqueous assay buffer [50 mM HEPES pH 7.5, 5 mM MgCl2, 1.0 mM dithiothreitol, 0.005% (v/v) Nonidet-P40 (Sigma)] was added and the mixture was incubated for 15 min at 22° C. to allow pre-binding of the test compounds to the enzyme before the start of the kinase reaction. Then the kinase reaction was started by the addition of 3 μL of a solution of adenosine-tri-phosphate (ATP, 3.3 mM=>final conc. in the 5 μL assay volume is 2 mM) and substrate (0.1 μM=>final conc. in the 5 μL assay volume is 0.06 μM) in assay buffer and the resulting mixture was incubated for a reaction time of 30 min at 22° C. The concentration of MKNK1 was adjusted depending of the activity of the enzyme lot and was chosen appropriate to have the assay in the linear range, typical concentrations were in the range of 0.003 μg/mL. The reaction was stopped by the addition of 5 μL of a solution of TR-FRET detection reagents (5 nM streptavidine-XL665 [Cisbio Bioassays, Codolet, France] and 1 nM anti-ribosomal protein S6 (pSer236)-antibody from Invitrogen [#44921G] and 1 nM LANCE EU-W1024 labeled ProteinG [Perkin-Elmer, product no. AD0071]) in an aqueous EDTA-solution (100 mM EDTA, 0.1% (w/v) bovine serum albumin in 50 mM HEPES pH 7.5).
The resulting mixture was incubated for 1 h at 22° C. to allow the formation of complex between the phosphorylated biotinylated peptide and the detection reagents. Subsequently the amount of phosphorylated substrate was evaluated by measurement of the resonance energy transfer from the Eu-chelate to the streptavidine-XL. Therefore, the fluorescence emissions at 620 nm and 665 nm after excitation at 350 nm were measured in a TR-FRET reader, e.g. a Rubystar (BMG Labtechnologies, Offenburg, Germany) or a Viewlux (Perkin-Elmer). The ratio of the emissions at 665 nm and at 622 nm was taken as the measure for the amount of phosphorylated substrate.

T1 sequence (Q9BUB5 1-424 isoform Q9BUB5-2 T344D): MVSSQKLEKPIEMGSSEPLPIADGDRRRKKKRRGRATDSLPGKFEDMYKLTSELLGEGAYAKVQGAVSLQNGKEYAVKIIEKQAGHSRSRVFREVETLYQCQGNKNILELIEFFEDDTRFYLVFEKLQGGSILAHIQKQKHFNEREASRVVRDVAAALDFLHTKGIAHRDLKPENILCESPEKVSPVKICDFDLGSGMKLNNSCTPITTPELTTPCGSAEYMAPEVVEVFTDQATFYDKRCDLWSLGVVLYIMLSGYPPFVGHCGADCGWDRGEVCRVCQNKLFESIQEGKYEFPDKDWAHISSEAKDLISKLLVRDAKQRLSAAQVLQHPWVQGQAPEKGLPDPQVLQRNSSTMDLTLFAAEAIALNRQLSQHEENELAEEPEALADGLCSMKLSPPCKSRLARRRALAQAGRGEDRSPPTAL

With `C[C@@H]1COCCN1C(=O)[C@H]1CCc2c(sc3ncnc(Nc4cc(Cl)c5n(c4=O)C(C)(C)NC5=O)c23)C1` [Example 117, 8-chloro-3,3-dimethyl-6-({(7S)-7-[(3R)-3-methylmorpholine-4-carbonyl]-5,6,7,8-tetrahydro[1]benzothieno[2,3-d]pyrimidin-4-yl}amino)-2,3-dihydroimidazo[1,5-a]pyridine-1,5-dione], the half-inhibitory concentration (IC50) stood at 0.4 nM.

On to `Cc1cc(Nc2ncnc3sc4c(c23)CC[C@H](C(=O)N2CC(C#N)C2)C4)c(=O)n2c1C(=O)N[C@]21CC[C@@](O)(C(F)(F)F)CC1` [Example 82, 1-{[(7S)-4-{[(cis)-4-Hydroxy-8′-methyl-1′,5′-dioxo-4-(trifluoromethyl)-1′,5′-dihydro-2′H-spiro[cyclohexane-1,3′-imidazo[1,5-a]pyridin]-6′-yl]amino}-5,6,7,8-tetrahydro[1]benzothieno[2,3-d]pyrimidin-7-yl]carbonyl}azetidine-3-carbonitrile], for which the 50% inhibitory concentration (IC50) is 1.5 nM.

Turning to `C[C@@H]1CN(C(=O)[C@H]2CCc3c(sc4ncnc(Nc5cc(Cl)c6n(c5=O)C5(CCCCC5)NC6=O)c34)C2)CCN1C` [Example 80, 8′-Chloro-6′-{[(7S)-7-{[(3R)-3,4-dimethylpiperazin-1-yl]carbonyl}-5,6,7,8-tetrahydro[1]benzothieno[2,3-d]pyrimidin-4-yl]amino}-2′H-spiro[cyclohexane-1,3′-imidazo[1,5-a]pyridine]-1′,5′-dione], the IC50 is 0.2 nM.

Take `C[C@@H]1COCCN1C(=O)[C@H]1CCc2c(sc3ncnc(Nc4cc(Cl)c5n(c4=O)C4(CCCC4)NC5=O)c23)C1` [Example 90, 8′-Chloro-6′-({(7S)-7-[(3R)-3-methylmorpholine-4-carbonyl]-5,6,7,8-tetrahydro[1]benzothieno[2,3-d]pyrimidin-4-yl}amino)-2′H-spiro[cyclopentane-1,3′-imidazo[1,5-a]pyridine]-1′,5′-dione]: the IC50 came to 0.3 nM.

On to `CN(C)[C@H]1CCN(C(=O)[C@H]2CCc3c(sc4ncnc(Nc5cc(Cl)c6n(c5=O)C5(CCCC5)NC6=O)c34)C2)C1` [Example 89, 8′-Chloro-6′-({(7S)-7-[(3S)-3-(dimethylamino)pyrrolidine-1-carbonyl]-5,6,7,8-tetrahydro[1]benzothieno[2,3-d]pyrimidin-4-yl}amino)-2′H-spiro[cyclopentane-1,3′-imidazo[1,5-a]pyridine]-1′,5′-dione], for which the IC50 is less than 0.1 nM.

As to `N#CC1CN(C(=O)[C@H]2CCc3c(sc4ncnc(Nc5cc(Cl)c6n(c5=O)C5(CCCC5)NC6=O)c34)C2)C1` [Example 88, 1-{(7S)-4-[(8′-Chloro-1′,5′-dioxo-1′,5′-dihydro-2′H-spiro[cyclopentane-1,3′-imidazo[1,5-a]pyridin]-6′-yl)amino]-5,6,7,8-tetrahydro[1]benzothieno[2,3-d]pyrimidine-7-carbonyl}azetidine-3-carbonitrile], the 50% inhibitory concentration (IC50) was less than 0.1 nM.

Regarding `Cc1cc(Nc2ncnc3sc4c(c23)CC[C@H](C(=O)N2C[C@H]3C[C@@H]2CO3)C4)c(=O)n2c1C(=O)NC2(C)C` [Example 33, 3,3,8-Trimethyl-6-({(7S)-7-[(1R,4R)-2-oxa-5-azabicyclo[2.2.1]hept-5-ylcarbonyl]-5,6,7,8-tetrahydro[1]benzothieno[2,3-d]pyrimidin-4-yl}amino)-2,3-dihydroimidazo[1,5-a]pyridine-1,5-dione], the half-inhibitory concentration (IC50) turned out to be 0.8 nM.

As to `N#CC1CN(C(=O)[C@H]2CCc3c(sc4ncnc(Nc5cc(Cl)c6n(c5=O)C5(CCCCC5)NC6=O)c34)C2)C1` [Example 77, 1-({(7S)-4-[(8′-Chloro-1′,5′-dioxo-1′,5′-dihydro-2′H-spiro[cyclohexane-1,3′-imidazo[1,5-a]pyridin]-6′-yl)amino]-5,6,7,8-tetrahydro[1]benzothieno[2,3-d]pyrimidin-7-yl}carbonyl)azetidine-3-carbonitrile], the IC50 was 0.8 nM.

Source of the values: patent US20190388425A1, “SUBSTITUTED IMIDAZOPYRIDINPYRIMIDINES” (Bayer Pharma Aktiengesellschaft, priority 2017, published 2019).
